Laboratory results reported in the supplement of paper PMC8671470.
Where a name gives a salt, the structure may show the parent alone. ± gives the standard deviation of the averaged measurements.

Tests used:
Conditions in all cases: 72 h
HL-60 [1] = assay: cell viability (% survival relative to DMSO control); higher = less cytotoxic
In short: (§1)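 HL-60 cells grown in RPMI 1640 with 10% FBS were rescreened against the full library in 384-well plates, in duplicate, at five tenfold concentrations from 1 to 10,000 nM, alongside DMSO or 100 nM of one of three metabolic inhibitors for 72 h at 37 °C, 5% CO2. Reference wells contained DMSO or 10 μM proteasome inhibitor. Viability was read with CellTiter-Glo and normalised to these reference wells, and where reported, area under the curve was taken from four-parameter log-logistic fits in drc and PharmacoGx.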

[2] = tested on: myeloid leukemia patient primary cells Pat.3; assay: cell viability (% survival relative to DMSO control); higher = less cytotoxic
In short: (§2)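 Mononuclear cells from patients with AML or CML were thawed, purified on Ficoll and placed in RPMI 1640 with 10% FBS at 10,000 cells/well on 384-well plates. The plates came pre-printed with 70 compounds at five tenfold concentrations spanning 1–10,000 nM, in duplicate, and cells were exposed for 72 h. CellTiter-Glo gave viability, scaled between DMSO wells and wells with 10 μM proteasome inhibitor. Where reported, area under the curve was obtained from log-logistic fits with four parameters using the drc and PharmacoGx R packages.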

[3] = tested on: myeloid leukemia patient primary cells Pat.4; assay: as above
In short: as §2

[4] = tested on: myeloid leukemia patient primary cells Pat.11; assay: as above
In short: as §2

[5] = tested on: myeloid leukemia patient primary cells Pat.15; assay: as above
In short: as §2

[6] = tested on: myeloid leukemia patient primary cells Pat.9; assay: as above
In short: as §2

[7] = tested on: myeloid leukemia patient primary cells Pat.10; assay: as above
In short: as §2

[8] = tested on: myeloid leukemia patient primary cells Pat.1; assay: as above
In short: as §2

[9] = tested on: myeloid leukemia patient primary cells Pat.2; assay: as above
In short: as §2

[10] = tested on: myeloid leukemia patient primary cells Pat.12; assay: as above
In short: as §2

[11] = tested on: myeloid leukemia patient primary cells Pat.6; assay: as above
In short: as §2

[12] = tested on: myeloid leukemia patient primary cells Pat.14; assay: as above
In short: as §2

[13] = tested on: myeloid leukemia patient primary cells Pat.7; assay: as above
In short: as §2

[14] = tested on: myeloid leukemia patient primary cells Pat.5; assay: as above
In short: as §2

[15] = tested on: myeloid leukemia patient primary cells Pat.13; assay: as above
In short: as §2

[16] = tested on: myeloid leukemia patient primary cells Pat.8; assay: as above
In short: as §2

HL-60 [17] = assay: area under dose-response curve (viability, 1 nM-10 uM) (fraction (0-1)); higher = more sensitive
In short: as §1

CC(C)(Cc1ccccc1)NCC(O)c1ccc(O)c(NS(C)(=O)=O)c1 (centres undefined) [Zinterol hydrochloride]
cell viability [%], HL-60 [1]
Conditions	0.001 µM	0.01 µM	0.1 µM	1 µM	10 µM
co-treatment: AZD3965 100 nM	99.4 ± 2.4	83.1 ± 24	101 ± 1.7	93.8 ± 2.5	95.4 ± 5.7
co-treatment: DMSO vehicle	99.8 ± 3.6	91.6 ± 15	99.8 ± 4.9	102 ± 5	95.5 ± 1.3
co-treatment: GSK2194069 100 nM	97.9 ± 2.1	100 ± 6	95.1 ± 3.6	101 ± 0.26	94.64 ± 0.55
co-treatment: pictilisib 100 nM	85.5 ± 12	91.4 ± 4.9	86.6 ± 3.3	90.4 ± 7	72.6 ± 7.7

cell viability [%]
Conditions	1 nM	10 nM	100 nM	1000 nM	10000 nM
[2]	84.7	> 100	93.4	90.2	87.3
[3]	87.7	94.7	82.8	93.3	97.3
[4]	95.7	> 100	> 100	96.2	> 100
[5]	87	> 100	95.8	95.8	68.9
[6]	79.2	79.5	67.4	74.7	87.2
[7]	61	94.8	38.2	> 100	> 100
[8]	89.4	> 100	98.6	94.8	> 100
[9]	85.5	96.4	86	99.7	93
[10]	90.2	98.3	93.9	99	97.5
[11]	> 100	> 100	> 100	> 100	> 100
[12]	73.4	87.2	91.3	90.7	75.6
[13]	54.3	> 100	76.6	> 100	> 100
[14]	17	> 100	73	99.9	93.9
[15]	96.7	99.8	92.6	> 100	> 100
[16]	88.5	96.4	> 100	85.3	85.5

O=C(Cc1cccc(OC(F)(F)F)c1)Nc1ccc(CCCCc2nnc(NC(=O)Cc3ccccn3)s2)nn1 [CB-839]
Conditions	area under dose-response curve, co-treatment: AZD3965 100 nM	area under dose-response curve, co-treatment: DMSO vehicle	area under dose-response curve, co-treatment: GSK2194069 100 nM	area under dose-response curve, co-treatment: pictilisib 100 nM	cell viability, 1 nM [%]	cell viability, 10 nM [%]	cell viability, 100 nM [%]	cell viability, 1000 nM [%]	cell viability, 10000 nM [%]
HL-60 [17]	0.0553	< 0.0301	0.0569	0.0991	–	–	–	–	–
[2]	–	–	–	–	67.7	39.5	11.1	9.36	14.5
[3]	–	–	–	–	92	91.5	57.4	61	75.4
[4]	–	–	–	–	94.1	88.4	85.1	74.3	90.7
[5]	–	–	–	–	92.4	89.2	73.2	40.2	36.6
[6]	–	–	–	–	62.2	35.3	1.99	7.13	14.1
[7]	–	–	–	–	52.5	47.9	24.4	44.8	68.9
[8]	–	–	–	–	84.7	81.3	46.7	56.4	59.1
[9]	–	–	–	–	86.8	91.3	78.1	87	88.3
[10]	–	–	–	–	86.8	89.6	88	80.1	99.4
[11]	–	–	–	–	91.7	94.9	79.1	84.9	90.9
[12]	–	–	–	–	75.6	69.4	39.7	41.4	78.6
[13]	–	–	–	–	58.6	74.7	6.64	21.2	38.3
[14]	–	–	–	–	17.1	53.9	2.39	5.69	19.5
[15]	–	–	–	–	85.3	88.9	69	64.6	84
[16]	–	–	–	–	82.7	86.7	76.8	87.8	81

cell viability [%], HL-60 [1]
Conditions	0.001 µM	0.01 µM	0.1 µM	1 µM	10 µM
co-treatment: AZD3965 100 nM	105 ± 1.2	103.64 ± 0.054	103 ± 3.3	93.2 ± 6.7	71.4 ± 1
co-treatment: DMSO vehicle	97.2 ± 2.6	102 ± 6.1	97.9 ± 2.6	93.6 ± 3.5	88.7 ± 10
co-treatment: GSK2194069 100 nM	103 ± 3	94.8 ± 4.5	97.4 ± 4.9	94.1 ± 6.3	77.9 ± 1.9
co-treatment: pictilisib 100 nM	100.52 ± 0.023	87.5 ± 7.5	78.3 ± 1.6	71.08 ± 0.63	54 ± 1.8

O=C(Oc1cccc(F)c1OC(=O)c1cccc(O)c1)c1cccc(O)c1 [WZB117]
cell viability [%], HL-60 [1]
Conditions	0.001 µM	0.01 µM	0.1 µM	1 µM	10 µM
co-treatment: AZD3965 100 nM	102.1 ± 0.63	97.3 ± 1.1	103.1 ± 0.66	101.6 ± 0.47	68.9 ± 8.2
co-treatment: DMSO vehicle	103 ± 2	98.8 ± 7.3	99 ± 5.1	101 ± 1.5	73.3 ± 17
co-treatment: GSK2194069 100 nM	102 ± 7.4	91.2 ± 8.4	95.2 ± 1.2	99.8 ± 4.6	84.6 ± 1.2
co-treatment: pictilisib 100 nM	111 ± 13	100 ± 6.6	96.8 ± 2.6	97.1 ± 4.3	70.9 ± 4.2

cell viability [%]
Conditions	1 nM	10 nM	100 nM	1000 nM	10000 nM
[2]	96.7	71.3	83	72.5	< 0
[3]	94.5	82.1	85.2	99	17.3
[4]	> 100	94.1	> 100	95.1	75.4
[5]	96.4	78.9	86.1	75.7	61.3
[6]	60.3	27.8	46.5	59.5	2.92
[7]	70.4	90.9	74.7	54.5	31.5
[8]	98	81.2	78	88.7	47.3
[9]	99.7	83.5	90.5	93.6	77.1
[10]	98.4	92.8	95.5	86.4	57
[11]	96.3	87.9	87.1	93.3	62.6
[12]	97.9	61.5	74	90.2	5.34
[13]	89.6	97.1	85.6	87.9	8.3
[14]	96.4	23.7	4.78	26.1	3.37
[15]	94.5	86.2	78.5	91	63.9
[16]	95.5	67.8	79.7	51.9	11
